Results on 19 substances are retold here after US20220259593A1, “CONTROL OF MAMMALIAN GENE DOSAGE USING CRISPR” (The Regents of the University of California, priority 2019, published 2022).

The test system of this series is K562 CRISPRi cells. Description: Perturb-seq pooled growth measurement (sgRNA counts, growth phenotype γ, relative activity). In kind it is cell-based, human. As to conditions: sequencing read counts; for Perturb-seq pooled growth sgRNA counts, d5: 5 days of growth (day seven after transduction); for Perturb-seq pooled growth sgRNA counts, d10: 10 days of growth (day twelve after transduction); for Perturb-seq pooled growth sgRNA counts, T0: T0 = day two after transduction. The source says:
Finally, we sought to use intermediate-activity sgRNAs to explore relationships between expression levels of various genes and the resulting cellular phenotypes. To simultaneously measure gene expression levels and obtain rich phenotypes for a variety of sgRNA series, we used Perturb-seq, an experimental strategy that enables matched capture of the transcriptome and the identity of an expressed sgRNA for each individual cell in pools of cells (27, 31-33) (FIG. 12A). […] In addition to the single-cell transcriptomes, we measured bulk growth phenotypes conferred by sgRNAs in these cells.
To measure the growth rate defects conferred by each sgRNA for comparison with the transcriptional phenotypes, samples of 500,000 transduced cells were taken from the same transduced cell population used in the Perturb-seq experiment on days two, seven, and twelve after transduction. Genomic DNA was extracted using the Nucleospin Blood kit (Macherey-Nagel) and sgRNA amplicons were prepared as described previously and above (19), albeit with no genomic DNA digestion or gel purification, and sequenced on HiSeq 4000 as described above for the other screens. Growth phenotypes were calculated by comparing normalized sgRNA abundances at day seven and twelve to those at day two, as described above. […] Relative sgRNA activities measured at day seven (five days of growth) were used to assign sgRNA activities in further analysis.

For “DUT_+_48624411.23-P1P2_00: sgRNA targeting DUT, GCGAGCGAGGAGACCACCGG, SEQ ID NO: 110 (listed as DNA, chemistry not fully specified)”, the “Perturb-seq pooled growth sgRNA counts, d5” value is listed as 3755; the “Perturb-seq pooled growth sgRNA counts, d10” value is listed as 1570; the “Perturb-seq pooled growth sgRNA counts, T0” value is recorded as 14025.

In the case of “DUT_+_48624411.23-P1P2_01: sgRNA targeting DUT, GCCAGCGAGGAGACCACCGG, SEQ ID NO: 111 (listed as DNA, chemistry not fully specified)”, the “Perturb-seq pooled growth sgRNA counts, d5” value worked out at 6764; the “Perturb-seq pooled growth sgRNA counts, d10” value is listed as 3576; the “Perturb-seq pooled growth sgRNA counts, T0” value is given as 25227.

On to “DUT_+_48624411.23-P1P2_07: sgRNA targeting DUT, GCGAGCGAGGAGCCCACCGG, SEQ ID NO: 113 (listed as DNA, chemistry not fully specified)”, for which the “Perturb-seq pooled growth sgRNA counts, d5” value was determined as 1509; the “Perturb-seq pooled growth sgRNA counts, d10” value was 1157; the “Perturb-seq pooled growth sgRNA counts, T0” value is 4601.

Regarding “DUT_+_48624411.23-P1P2_08: sgRNA targeting DUT, GCGAGCGAGGAGGCCACCGG, SEQ ID NO: 112 (listed as DNA, chemistry not fully specified)”, the “Perturb-seq pooled growth sgRNA counts, d5” value is listed as 4351; the “Perturb-seq pooled growth sgRNA counts, d10” value was found to be 2392; the “Perturb-seq pooled growth sgRNA counts, T0” value is given as 15356.

Take “DUT_+_48624411.23-P1P2_10: sgRNA targeting DUT, GCGAGCGAGGAGACCAACGG, SEQ ID NO: 114 (listed as DNA, chemistry not fully specified)”: the “Perturb-seq pooled growth sgRNA counts, d5” value is recorded as 5403; the “Perturb-seq pooled growth sgRNA counts, d10” value was found to be 4466; the “Perturb-seq pooled growth sgRNA counts, T0” value worked out at 6538.

On to “EIF2S1_−_67827080.23-P1P2_00: sgRNA targeting EIF2S1, GAGCGAAGCGCACGCTGAGG, SEQ ID NO: 136 (listed as DNA, chemistry not fully specified)”, for which the “Perturb-seq pooled growth sgRNA counts, d5” value is on record as 1123; the “Perturb-seq pooled growth sgRNA counts, d10” value was 1318; the “Perturb-seq pooled growth sgRNA counts, T0” value came to 5718.

With “EIF2S1_−_67827080.23-P1P2_01: sgRNA targeting EIF2S1, GAGCGAAACGCACGCTGAGG, SEQ ID NO: 139 (listed as DNA, chemistry not fully specified)”, the “Perturb-seq pooled growth sgRNA counts, d5” value amounted to 3799; the “Perturb-seq pooled growth sgRNA counts, d10” value was found to be 4065; the “Perturb-seq pooled growth sgRNA counts, T0” value is given as 5433.

“EIF2S1_−_67827080.23-P1P2_02: sgRNA targeting EIF2S1, GAGCGCAGCGCACGCTGAGG, SEQ ID NO: 138 (listed as DNA, chemistry not fully specified)”: the “Perturb-seq pooled growth sgRNA counts, d5” value came out at 2570; the “Perturb-seq pooled growth sgRNA counts, d10” value is on record as 2582; the “Perturb-seq pooled growth sgRNA counts, T0” value was found to be 8035.

With “EIF2S1_−_67827080.23-P1P2_06: sgRNA targeting EIF2S1, GAGCGAAGCGCGCGCTGAGG, SEQ ID NO: 137 (listed as DNA, chemistry not fully specified)”, the “Perturb-seq pooled growth sgRNA counts, d5” value is 1718; the “Perturb-seq pooled growth sgRNA counts, d10” value was 2436; the “Perturb-seq pooled growth sgRNA counts, T0” value stood at 4549.

“EIF2S1_−_67827080.23-P1P2_07: sgRNA targeting EIF2S1, GAGCGAAGCGCTCGCTGAGG, SEQ ID NO: 140 (listed as DNA, chemistry not fully specified)”: the “Perturb-seq pooled growth sgRNA counts, d5” value is recorded as 13281; the “Perturb-seq pooled growth sgRNA counts, d10” value was 22309; the “Perturb-seq pooled growth sgRNA counts, T0” value is given as 6931.

“GATA1_−_48645022.23-P1P2_00: sgRNA targeting GATA1, GTGAGCTTGCCACATCCCCA, SEQ ID NO: 119 (listed as DNA, chemistry not fully specified)”: the “Perturb-seq pooled growth sgRNA counts, d5” value is recorded as 955; the “Perturb-seq pooled growth sgRNA counts, d10” value worked out at 757; the “Perturb-seq pooled growth sgRNA counts, T0” value turned out to be 5712.

In the case of “GATA1_−_48645022.23-P1P2_03: sgRNA targeting GATA1, GTGCGCTTGCCACATCCCCA, SEQ ID NO: 120 (listed as DNA, chemistry not fully specified)”, the “Perturb-seq pooled growth sgRNA counts, d5” value is reported as 1927; the “Perturb-seq pooled growth sgRNA counts, d10” value is 1534; the “Perturb-seq pooled growth sgRNA counts, T0” value was found to be 12276.

Regarding “GATA1_−_48645022.23-P1P2_04: sgRNA targeting GATA1, GTGAGCTTACCACATCCCCA, SEQ ID NO: 121 (listed as DNA, chemistry not fully specified)”, the “Perturb-seq pooled growth sgRNA counts, d5” value came to 860; the “Perturb-seq pooled growth sgRNA counts, d10” value is recorded as 668; the “Perturb-seq pooled growth sgRNA counts, T0” value was found to be 4714.

“GATA1_−_48645022.23-P1P2_06: sgRNA targeting GATA1, GTGAGCTTGCGACATCCCCA, SEQ ID NO: 123 (listed as DNA, chemistry not fully specified)”: the “Perturb-seq pooled growth sgRNA counts, d5” value was 5580; the “Perturb-seq pooled growth sgRNA counts, d10” value came to 5489; the “Perturb-seq pooled growth sgRNA counts, T0” value is 9440.

As for “GATA1_−_48645022.23-P1P2_08: sgRNA targeting GATA1, GTGAGCTTTCCACATCCCCA, SEQ ID NO: 122 (listed as DNA, chemistry not fully specified)”, the “Perturb-seq pooled growth sgRNA counts, d5” value is on record as 2043; the “Perturb-seq pooled growth sgRNA counts, d10” value is reported as 1873; the “Perturb-seq pooled growth sgRNA counts, T0” value was 7028.

On to “GATA1_−_48645022.23-P1P2_12: sgRNA targeting GATA1, GTGAGCTTGCCACATCCGCA, SEQ ID NO: 124 (listed as DNA, chemistry not fully specified)”, for which the “Perturb-seq pooled growth sgRNA counts, d5” value was found to be 7289; the “Perturb-seq pooled growth sgRNA counts, d10” value is 11548; the “Perturb-seq pooled growth sgRNA counts, T0” value is listed as 4081.

Turning to “GINS1_−_25388381.23-P1P2_00: sgRNA targeting GINS1, GGACTAGAACGAAAGGAGTG, SEQ ID NO: 93 (listed as DNA, chemistry not fully specified)”, the “Perturb-seq pooled growth sgRNA counts, d5” value came out at 547; the “Perturb-seq pooled growth sgRNA counts, d10” value worked out at 280; the “Perturb-seq pooled growth sgRNA counts, T0” value stood at 3621.

Consider “GINS1_−_25388381.23-P1P2_03: sgRNA targeting GINS1, GGACTATAACGAAAGGAGTG, SEQ ID NO: 96 (listed as DNA, chemistry not fully specified)”, for which the “Perturb-seq pooled growth sgRNA counts, d5” value is 2982; the “Perturb-seq pooled growth sgRNA counts, d10” value is 2755; the “Perturb-seq pooled growth sgRNA counts, T0” value was determined as 9799.

Consider “GINS1_−_25388381.23-P1P2_06: sgRNA targeting GINS1, GGACTAGAACGGAAGGAGTG, SEQ ID NO: 95 (listed as DNA, chemistry not fully specified)”, for which the “Perturb-seq pooled growth sgRNA counts, d5” value came out at 1828; the “Perturb-seq pooled growth sgRNA counts, d10” value was 1219; the “Perturb-seq pooled growth sgRNA counts, T0” value is 11452.
